Measured values from patent US20100311714A1, “1H-IMIDAZO[4,5-c]QUINOLINONE COMPOUNDS” (priority 2009, published 2010).
pIC50: −log10 of the molar value. Read-outs that look alike come from different tables or passages of the source.

Columns and labels:
[1] = biological target: T1, PI3K alfa (Homo sapiens, UniProt P42336); assay: PI3K alpha kinase assay (Kinase-Glo luminescence); format: biochemical
T1 construct: His tag (C); made in house; host or cells: baculovirus BV1075; Tn5 (Trichoplusia ni) or TiniPro insect cells
T1 sequence (P42336 with tags, fused parts or gaps limits assumed): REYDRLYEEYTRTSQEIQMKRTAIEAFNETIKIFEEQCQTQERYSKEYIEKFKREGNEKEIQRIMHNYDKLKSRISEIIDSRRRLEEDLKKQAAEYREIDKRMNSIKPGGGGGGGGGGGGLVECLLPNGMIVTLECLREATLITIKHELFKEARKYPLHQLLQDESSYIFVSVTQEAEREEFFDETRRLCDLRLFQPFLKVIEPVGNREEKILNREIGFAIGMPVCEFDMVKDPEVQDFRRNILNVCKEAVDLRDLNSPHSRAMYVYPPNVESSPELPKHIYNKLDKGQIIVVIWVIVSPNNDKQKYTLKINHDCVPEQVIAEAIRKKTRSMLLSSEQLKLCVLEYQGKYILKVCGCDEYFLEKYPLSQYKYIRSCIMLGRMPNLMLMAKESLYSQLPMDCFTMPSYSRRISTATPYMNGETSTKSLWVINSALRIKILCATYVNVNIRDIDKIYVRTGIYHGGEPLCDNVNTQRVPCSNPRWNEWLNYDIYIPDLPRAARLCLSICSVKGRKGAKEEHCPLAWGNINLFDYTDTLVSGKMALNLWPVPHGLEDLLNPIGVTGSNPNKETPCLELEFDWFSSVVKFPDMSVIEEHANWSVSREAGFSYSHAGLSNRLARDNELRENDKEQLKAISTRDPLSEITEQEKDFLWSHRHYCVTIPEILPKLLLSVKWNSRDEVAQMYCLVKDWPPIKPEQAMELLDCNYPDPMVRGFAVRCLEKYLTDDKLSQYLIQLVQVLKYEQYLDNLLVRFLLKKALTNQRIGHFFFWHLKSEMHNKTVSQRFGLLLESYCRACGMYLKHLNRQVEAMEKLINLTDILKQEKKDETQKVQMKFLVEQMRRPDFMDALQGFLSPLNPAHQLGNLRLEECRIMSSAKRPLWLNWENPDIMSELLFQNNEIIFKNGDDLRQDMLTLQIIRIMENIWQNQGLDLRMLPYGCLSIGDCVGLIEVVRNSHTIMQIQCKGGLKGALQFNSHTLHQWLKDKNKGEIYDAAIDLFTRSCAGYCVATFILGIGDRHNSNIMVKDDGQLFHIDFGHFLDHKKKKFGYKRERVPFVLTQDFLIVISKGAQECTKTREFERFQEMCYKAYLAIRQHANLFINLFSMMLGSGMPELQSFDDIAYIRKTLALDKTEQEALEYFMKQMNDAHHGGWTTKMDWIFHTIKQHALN
Procedure, shortened: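 IC50 values come from a four-parameter logistic fit of percent inhibition at eight concentrations, typically 10 to 0.003 μM. Recombinant PI3Kα at 10 nM turned over 1 μM ATP with 10 μg/mL PI for 60 min at room temperature, and residual ATP was measured by Kinase-Glo.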

[2] = biological target: T2, PI3K delta (Homo sapiens, UniProt O00329); assay: PI3K delta kinase assay (Kinase-Glo luminescence); format: biochemical
T2 construct: for the full-length p110-d subunit are generated and fused by overlapping PCR; His tag (C); made in house; host or cells: baculovirus BV1060; Tn5 (Trichoplusia ni) or TiniPro insect cells
T2 sequence (O00329 with tags, fused parts or gaps limits assumed): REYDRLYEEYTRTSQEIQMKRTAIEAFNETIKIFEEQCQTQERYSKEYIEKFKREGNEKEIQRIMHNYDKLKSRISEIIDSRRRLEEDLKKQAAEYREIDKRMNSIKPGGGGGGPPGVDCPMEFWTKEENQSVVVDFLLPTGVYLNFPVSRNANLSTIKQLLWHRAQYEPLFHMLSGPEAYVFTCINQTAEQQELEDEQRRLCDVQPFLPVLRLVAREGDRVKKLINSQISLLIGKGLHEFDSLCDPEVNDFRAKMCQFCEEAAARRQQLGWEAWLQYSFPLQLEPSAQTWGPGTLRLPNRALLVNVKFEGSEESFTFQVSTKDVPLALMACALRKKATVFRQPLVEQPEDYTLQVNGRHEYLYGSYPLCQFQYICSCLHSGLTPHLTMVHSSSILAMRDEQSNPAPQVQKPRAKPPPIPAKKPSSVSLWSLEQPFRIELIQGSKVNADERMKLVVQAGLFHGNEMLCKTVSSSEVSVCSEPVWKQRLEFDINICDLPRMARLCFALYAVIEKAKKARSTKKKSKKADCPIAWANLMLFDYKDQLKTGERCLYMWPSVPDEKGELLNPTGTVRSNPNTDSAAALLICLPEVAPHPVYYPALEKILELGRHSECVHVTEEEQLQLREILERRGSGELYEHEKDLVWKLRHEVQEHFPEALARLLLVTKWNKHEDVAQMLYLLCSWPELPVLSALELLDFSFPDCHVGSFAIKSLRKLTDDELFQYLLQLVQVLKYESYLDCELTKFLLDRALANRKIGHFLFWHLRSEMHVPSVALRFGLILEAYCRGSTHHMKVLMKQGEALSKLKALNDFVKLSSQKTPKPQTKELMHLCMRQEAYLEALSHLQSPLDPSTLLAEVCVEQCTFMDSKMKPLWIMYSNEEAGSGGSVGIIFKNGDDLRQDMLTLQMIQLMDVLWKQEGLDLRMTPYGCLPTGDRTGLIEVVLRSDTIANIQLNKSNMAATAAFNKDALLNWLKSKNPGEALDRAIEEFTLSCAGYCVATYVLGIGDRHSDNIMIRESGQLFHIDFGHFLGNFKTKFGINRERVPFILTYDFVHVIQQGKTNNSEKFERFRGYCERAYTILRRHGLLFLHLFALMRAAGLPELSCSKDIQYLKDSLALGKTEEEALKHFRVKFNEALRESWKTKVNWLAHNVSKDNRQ
Procedure, shortened: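 IC50s derive from 8-point inhibition curves fitted to a 4-parameter logistic model. Reaction: 10 nM purified p110δ/p85 iSH2 fusion, 1 μM ATP, 10 μg/mL PI substrate, pH 7.5 Tris buffer with MgCl2, NaCl, CHAPS and DTT, run 60 min at room temperature; remaining ATP read by Kinase-Glo luminescence.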

[3] = Parallel Artificial Membrane Permeability Assay (PAMPA) at pH 6.8; format: physicochemical
Procedure, shortened: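 Reported as log Pe, membrane permeability was determined by parallel artificial membrane assay at pH 6.8 per Wohnsland–Faller.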

CCNc1cc(-c2ccc3ncc4c(c3c2)n(-c2ccc(N3CC(F)(F)C3)nc2C)c(=O)n4C)cnc1CO [Example 24.3, 1-[6-(3,3-Difluoro-azetidin-1-yl)-2-methyl-pyridin-3-yl]-8-(5-ethylamino-6-hydroxymethyl-pyridin-3-yl)-3-methyl-1,3-dihydro-imidazo[4,5-c]quinolin-2-one]
pIC50 ([1]; read-out: EPK_PI3Kalfa/IC50): 7.96 | pIC50 ([2]; read-out: EPK_PI3Kdelta/IC50): 7.26

Cc1ncccc1-n1c(=O)n(C)c2cnc3ccc(-c4cnc5c(ccn5C)c4)cc3c21 [Example 2.14, 3-Methyl-1-(2-methyl-pyridin-3-yl)-8-(1-methyl-1H-pyrrolo[2,3-b]pyridin-5-yl)-1,3-dihydro-imidazo[4,5-c]quinolin-2-one]
HT-perm/logPe pH6.8 [3]: −3.9 | pIC50 ([1]; read-out: PI3Kalfa/IC50): 7.47 | pIC50 ([2]; read-out: PI3Kdelta/IC50): 7.24

COCCOc1ccc(-n2c(=O)n(C)c3cnc4ccc(-c5cnc(COC)c(OC)c5)cc4c32)c(C)n1 [Example 22.3, 1-[6-(2-Methoxy-ethoxy)-2-methyl-pyridin-3-yl]-8-(5-methoxy-6-methoxymethyl-pyridin-3-yl)-3-methyl-1,3-dihydro-imidazo[4,5-c]quinolin-2-one]
pIC50 ([1]; read-out: EPK_PI3Kalfa/IC50): 6.79 | pIC50 ([2]; read-out: EPK_PI3Kdelta/IC50): 7.25

COc1ccc(-c2ccc3ncc4c(c3c2)n(-c2cccnc2)c(=O)n4C)cc1OC [Example 5.2, 8-(3,4-Dimethoxy-phenyl)-3-methyl-1-pyridin-3-yl-1,3-dihydro-imidazo[4,5-c]quinolin-2-one]
HT-perm/logPe pH6.8 [3]: −3.9 | pIC50 ([1]; read-out: PI3Kalfa/IC50): 7.54 | pIC50 ([2]; read-out: PI3Kdelta/IC50): 7.14

CCOc1ccc(-c2ccc3ncc4c(c3c2)n(-c2ccc(NC(=O)COC)nc2C)c(=O)n4C)cn1 [Example 20.2, N-{5-[8-(6-Ethoxy-pyridin-3-yl)-3-methyl-2-oxo-2,3-dihydro-imidazo[4,5-c]quinolin-1-yl]-6-methyl-pyridin-2-yl}-2-methoxy-acetamide]
pIC50 ([1]; read-out: EPK_PI3Kalfa/IC50): 6.79 | pIC50 ([2]; read-out: EPK_PI3Kdelta/IC50): 6.61

COc1ccc(-n2c(=O)n(C)c3cnc4ccc(-c5cnc(N)c(C(F)(F)F)c5)cc4c32)c(OC)n1 [Example 8.1, 8-(6-Amino-5-trifluoromethyl-pyridin-3-yl)-1-(2,6-dimethoxy-pyridin-3-yl)-3-methyl-1,3-dihydro-imidazo[4,5-c]quinolin-2-one]
HT-perm/logPe pH6.8 [3]: −4.1 | pIC50 ([1]; read-out: PI3Kalfa/IC50): 7.96 | pIC50 ([2]; read-out: PI3Kdelta/IC50): 7.92

CNc1ccc(-c2ccc3ncc4c(c3c2)n(-c2ccc(N(C)CCOC)nc2C)c(=O)n4C)cn1 [Example 15.4, 1-{6-[(2-Methoxy-ethyl)-methyl-amino]-2-methyl-pyridin-3-yl}-3-methyl-8-(6-methylamino-pyridin-3-yl)-1,3-dihydro-imidazo[4,5-c]quinolin-2-one]
HT-Perm logPe pH6.8 [3]: −3.7 | pIC50 ([1]; read-out: EPK_PI3Kalfa/IC50): 7.34 | pIC50 ([2]; read-out: EPK_PI3Kdelta/IC50): 7.44

COCCN(C)c1ccc(-n2c(=O)n(C)c3cnc4ccc(-c5cnc(CO)c(OC)c5)cc4c32)c(C)n1 [Example 15.9, 8-(6-Hydroxymethyl-5-methoxy-pyridin-3-yl)-1-{6-[(2-methoxy-ethyl)-methyl-amino]-2-methyl-pyridin-3-yl}-3-methyl-1,3-dihydro-imidazo[4,5-c]quinolin-2-one]
pIC50 ([1]; read-out: EPK_PI3Kalfa/IC50): 7.64 | pIC50 ([2]; read-out: EPK_PI3Kdelta/IC50): 7.40

COCCN(C)c1ccc(-n2c(=O)n(C)c3cnc4ccc(-c5cnc(N(C)C)nc5)cc4c32)c(C)n1 [Example 15.5, 8-(2-Dimethylamino-pyrimidin-5-yl)-1-{6-[(2-methoxy-ethyl)-methyl-amino]-2-methyl-pyridin-3-yl}-3-methyl-1,3-dihydro-imidazo[4,5-c]quinolin-2-one]
HT-Perm logPe pH6.8 [3]: −3.7 | pIC50 ([1]; read-out: EPK_PI3Kalfa/IC50): 7.51 | pIC50 ([2]; read-out: EPK_PI3Kdelta/IC50): 7.36

COc1ccc(-c2ccc3ncc4c(c3c2)n(-c2cccnc2)c(=O)n4C)cn1 [Example 5.4, 8-(6-Methoxy-pyridin-3-yl)-3-methyl-1-pyridin-3-yl-1,3-dihydro-imidazo[4,5-c]quinolin-2-one]
HT-perm/logPe pH6.8 [3]: −3.7 | pIC50 ([1]; read-out: PI3Kalfa/IC50): 7.72 | pIC50 ([2]; read-out: PI3Kdelta/IC50): 7.41

CNc1ccc(-c2ccc3ncc4c(c3c2)n(-c2ccc(NC(=O)COC)nc2C)c(=O)n4C)cn1 [Example 20.4, 2-Methoxy-N-{6-methyl-5-[3-methyl-8-(6-methylamino-pyridin-3-yl)-2-oxo-2,3-dihydro-imidazo[4,5-c]quinolin-1-yl]-pyridin-2-yl}-acetamide]
pIC50 ([1]; read-out: EPK_PI3Kalfa/IC50): 7.41 | pIC50 ([2]; read-out: EPK_PI3Kdelta/IC50): 7.11

COCCN(C)c1ccc(-n2c(=O)n(C)c3cnc4ccc(-c5cnc(N)c(C(F)(F)F)c5)cc4c32)c(C)n1 [Example 15.1, 8-(6-Amino-5-trifluoromethyl-pyridin-3-yl)-1-{6-[(2-methoxy-ethyl)-methyl-amino]-2-methyl-pyridin-3-yl}-3-methyl-1,3-dihydro-imidazo[4,5-c]quinolin-2-one]
HT-Perm logPe pH6.8 [3]: −4 | pIC50 ([1]; read-out: EPK_PI3Kalfa/IC50): 8.15 | pIC50 ([2]; read-out: EPK_PI3Kdelta/IC50): 8.15

Cc1ccc(-n2c(=O)n(C)c3cnc4ccc(-c5cnc(N)c(C(F)(F)F)c5)cc4c32)c(C)n1 [Example 14.5, 8-(6-Amino-5-trifluoromethyl-pyridin-3-yl)-1-(2,6-dimethyl-pyridin-3-yl)-3-methyl-1,3-dihydro-imidazo[4,5-c]quinolin-2-one]
HT-Perm logPe pH6.8 [3]: −3.8 | pIC50 ([1]; read-out: EPK_PI3Kalfa/IC50): 8.30 | pIC50 ([2]; read-out: EPK_PI3Kdelta/IC50): 8.15

CCOc1ccc(-c2ccc3ncc4c(c3c2)n(-c2cccnc2OC)c(=O)n4C)cn1 [Example 1.5, 8-(6-Ethoxy-pyridin-3-yl)-1-(2-methoxy-pyridin-3-yl)-3-methyl-1,3-dihydro-imidazo[4,5-c]quinolin-2-one]
HT-perm/logPe pH6.8 [3]: −3.6 | pIC50 ([1]; read-out: PI3Kalfa/IC50): 7.40 | pIC50 ([2]; read-out: PI3Kdelta/IC50): 6.78

COc1ccc(-c2ccc3ncc4c(c3c2)n(-c2cccnc2OC)c(=O)n4C)cn1 [Example 1.1, 1-(2-Methoxy-pyridin-3-yl)-8-(6-methoxy-pyridin-3-yl)-3-methyl-1,3-dihydro-imidazo[4,5-c]quinolin-2-one]
HT-perm/logPe pH6.8 [3]: −3.6 | pIC50 ([1]; read-out: PI3Kalfa/IC50): 7.64 | pIC50 ([2]; read-out: PI3Kdelta/IC50): 7.59

Cc1nc(N2CCC(O)C2)ccc1-n1c(=O)n(C)c2cnc3ccc(-c4cncc(OC(C)C)c4)cc3c21 (stereo not shown) [Example 27.1, 1-[6-(3-Hydroxy-pyrrolidin-1-yl)-2-methyl-pyridin-3-yl]-8-(5-isopropoxy-pyridin-3-yl)-3-methyl-1,3-dihydro-imidazo[4,5-c]quinolin-2-one]
HT-Perm logPe pH6.8 [3]: −4.9 | pIC50 ([1]; read-out: EPK_PI3Kalfa/IC50): 7.68 | pIC50 ([2]; read-out: EPK_PI3Kdelta/IC50): 8.05

Cc1ccc(-n2c(=O)n(C)c3cnc4ccc(-c5cnc6c(ccn6C)c5)cc4c32)c(C)n1 [Example 14.7, 1-(2,6-Dimethyl-pyridin-3-yl)-3-methyl-8-(1-methyl-1H-pyrrolo[2,3-b]pyridin-5-yl)-1,3-dihydro-imidazo[4,5-c]quinolin-2-one]
HT-Perm logPe pH6.8 [3]: −4.3 | pIC50 ([1]; read-out: EPK_PI3Kalfa/IC50): 7.80 | pIC50 ([2]; read-out: EPK_PI3Kdelta/IC50): 7.55

CNc1cc(-c2ccc3ncc4c(c3c2)n(-c2ccc(C(F)(F)F)nc2C)c(=O)n4C)cnc1CO [Example 33.2, 8-(6-Hydroxymethyl-5-methylamino-pyridin-3-yl)-3-methyl-1-(2-methyl-6-trifluoromethyl-pyridin-3-yl)-1,3-dihydro-imidazo[4,5-c]quinolin-2-one]
HT-Perm logPe pH6.8 [3]: −4.8 | pIC50 ([1]; read-out: EPK_PI3Kalfa/IC50): 7.82 | pIC50 ([2]; read-out: EPK_PI3Kdelta/IC50): 8.00

COCCOc1ccc(-n2c(=O)n(C)c3cnc4ccc(-c5cncc(N6CCC6)c5)cc4c32)c(C)n1 [Example 22.2, 8-(5-Azetidin-1-yl-pyridin-3-yl)-1-[6-(2-methoxy-ethoxy)-2-methyl-pyridin-3-yl]-3-methyl-1,3-dihydro-imidazo[4,5-c]quinolin-2-one]
pIC50 ([1]; read-out: EPK_PI3Kalfa/IC50): 6.77 | pIC50 ([2]; read-out: EPK_PI3Kdelta/IC50): 7.00

COCCOc1cc(-c2ccc3ncc4c(c3c2)n(-c2ccc(OC)nc2OC)c(=O)n4C)cnc1C [Example 8.9, 1-(2,6-Dimethoxy-pyridin-3-yl)-8-[5-(2-methoxy-ethoxy)-6-methyl-pyridin-3-yl]-3-methyl-1,3-dihydro-imidazo[4,5-c]quinolin-2-one]
HT-Perm logPe pH6.8 [3]: −3.9 | pIC50 ([1]; read-out: EPK_PI3Kalfa/IC50): 7.96 | pIC50 ([2]; read-out: EPK_PI3Kdelta/IC50): 7.85

CCN(C)c1ccc(-n2c(=O)n(C)c3cnc4ccc(-c5ccc(NC)nc5)cc4c32)c(C)n1 [Example 12.1, 1-[6-(Ethyl-methyl-amino)-2-methyl-pyridin-3-yl]-3-methyl-8-(6-methylamino-pyridin-3-yl)-1,3-dihydro-imidazo[4,5-c]quinolin-2-one]
HT-Perm logPe pH6.8 [3]: −4.1 | pIC50 ([1]; read-out: EPK_PI3Kalfa/IC50): 7.44 | pIC50 ([2]; read-out: EPK_PI3Kdelta/IC50): 7.82

CNc1ncc(-c2ccc3ncc4c(c3c2)n(-c2ccc(NC(=O)COC)nc2C)c(=O)n4C)cn1 [Example 20.3, 2-Methoxy-N-{6-methyl-5-[3-methyl-8-(2-methylamino-pyrimidin-5-yl)-2-oxo-2,3-dihydro-imidazo[4,5-c]quinolin-1-yl]-pyridin-2-yl}-acetamide]
pIC50 ([1]; read-out: EPK_PI3Kalfa/IC50): 6.91 | pIC50 ([2]; read-out: EPK_PI3Kdelta/IC50): 6.39

CCOc1ccc(-c2ccc3ncc4c(c3c2)n(-c2cncc(C)c2)c(=O)n4C)cn1 [Example 17.1, 8-(6-Ethoxy-pyridin-3-yl)-3-methyl-1-(5-methyl-pyridin-3-yl)-1,3-dihydro-imidazo[4,5-c]quinolin-2-one]
HT-Perm logPe pH6.8 [3]: −4.5 | pIC50 ([1]; read-out: EPK_PI3Kalfa/IC50): 7.11 | pIC50 ([2]; read-out: EPK_PI3Kdelta/IC50): 6.56

COCC(=O)Nc1ccc(-n2c(=O)n(C)c3cnc4ccc(-c5cncc(OC(C)C)c5)cc4c32)c(C)n1 [Example 20.5, N-{5-[8-(5-Isopropoxy-pyridin-3-yl)-3-methyl-2-oxo-2,3-dihydro-imidazo[4,5-c]quinolin-1-yl]-6-methyl-pyridin-2-yl}-2-methoxy-acetamide]
pIC50 ([1]; read-out: EPK_PI3Kalfa/IC50): 7.40 | pIC50 ([2]; read-out: EPK_PI3Kdelta/IC50): 6.85
